Entries after “also recorded” stand apart in the source; their conditions may differ. Like-named read-outs stand apart in the source and are kept apart here.
Assays:
Male C57BL/6 mice = test: Cisplatin-induced nephrotoxicity in mice; type: in vivo
Method: (§1) Male C57BL/6 mice were given a single intraperitoneal injection of 20 mg/kg of cisplatin. Twenty micrograms of PACAP38 were given intraperitoneally 1 hour before the injection of cisplatin and additional doses were given at 24 and 48 hours after the initial dose. The control group of mice was injected intraperitoneally with the same volume of saline as for the injections of cisplatin and PACAP38 on the same schedule. The mice were euthanized 24 hours after the final injection of PACAP38. The serum creatinine levels were determined at sacrifice with isotope dilution liquid chromatography mass spectroscopy/mass spectroscopy. Each value represents the mean plus/minus the standard error of eight determinations. ** p<0.01 compared to the group treated only with cisplatin.
as §1, with “cystatin C” for “creatinine”, “commercial ELISA kits.” for “isotope dilution liquid chromatography mass spectroscopy/mass spectroscopy.”
as §1, with “body weights of the mice” for “serum creatinine levels”, “determined 1-2 hours before the first injection of PACAP38 and” for “determined”, “sacrifice.” for “sacrifice with isotope dilution liquid chromatography mass spectroscopy/mass spectroscopy.”, “p<0.01 and * p<0.05” for “p<0.01”
as §1, with “kidney” for “serum creatinine”, “levels of TNF-α” for “levels”, “commercial ELISA kits.” for “isotope dilution liquid chromatography mass spectroscopy/mass spectroscopy.”
as §1, with “kidney” for “serum creatinine”, “levels of IFN-γ” for “levels”, “commercial ELISA kits.” for “isotope dilution liquid chromatography mass spectroscopy/mass spectroscopy.”, “p<0.01 and * p<0.05” for “p<0.01”
Male C57BL/6 mice were given a single intraperitoneal injection of 20 mg/kg of cisplatin. Twenty micrograms of PACAP38 were given intraperitoneally 1 hour before the injection of cisplatin and additional doses were given at 24 and 48 hours after the initial dose. […]

rat = conditions: 48 hours after start, cited from earlier work
[1] = rat, in vivo, iv; cited from earlier work
[2] = cisplatin 20 mg/kg i.p., 20 micrograms peptide i.p. 1 h before and 24 and 48 h after, ELISA at sacrifice

Row | Substance | cytoprotection against cisplatin-induced nephrotoxicity / kidney injury (Male C57BL/6 mice; PACAP38 compared with [Iac1]PACAP38) | cisplatin-induced increase in kidney levels of interferon γ (IFN-γ) (Male C57BL/6 mice; [2]) | cisplatin-induced increase in kidney levels of monocyte chemotactic protein 1 (MCP-1, CCL2) (Male C57BL/6 mice; [2]) | cisplatin-induced increase in kidney levels of tumor necrosis factor-α (TNF-α) (Male C57BL/6 mice; [2]) | cisplatin-induced increase in serum cystatin C levels (Male C57BL/6 mice; [2]) | cisplatin-induced body weight loss (Male C57BL/6 mice; cisplatin 20 mg/kg i.p., 20 micrograms peptide i.p. 1 h before and 24 and 48 h after, at sacrifice) | cisplatin-induced increase in serum creatinine levels (Male C57BL/6 mice; cisplatin 20 mg/kg i.p., 20 micrograms peptide i.p. 1 h before and 24 and 48 h after, at sacrifice 24 h after final injection) | kidney function of cisplatin-injected mice (Male C57BL/6 mice; summary of FIGS. 3 and 4) | inflammatory response in the kidney of cisplatin-injected mice (Male C57BL/6 mice; summary of FIGS. 6-8 (TNF-α, IFN-γ, MCP-1)) | reduction of the infarct volume (rat; continuous i.v. infusion beginning 4 hours after start of 2-h MCAO) | reduction of the infarct volume (rat; continuous i.v. infusion beginning 8 hours after start of 2-h MCAO) | reduction of the infarct volume (rat; continuous i.v. infusion beginning 12 hours after start of 2-h MCAO) | half-life in the bloodstream [1]
1 | PACAP38: native human pituitary adenylate cyclase-activating polypeptide, α-amidated peptide with 38 amino acids | approximately equipotent; also recorded: potent cytoprotectants | reduction | reduction | reduction | reduction | reduction; also recorded: significantly reversed the weight lost | reduction | significantly restored kidney function | significantly blunted the inflammatory response | approximately 51% | ~22% | ~12% | 
2 | [^125I]-PACAP38: 125I-radiolabelled PACAP38 used for half-life in rats |  |  |  |  |  |  |  |  |  |  |  |  | 5 to 6 min
